Assay results taken from the NIST ThermoML archive (doi:10.1021/je100832h).
± gives the expanded uncertainty stated by the source.

Columns and labels:
[1] = xn = mol fraction of the nth substance listed; details: 101.32 kPa, Liquid, Vibrating tube method
[2] = Liquid; for mass density: 101.32 kPa, Vibrating tube method; for vapor or sublimation pressure: Ebulliometric method (Recirculating still)

CCOC(C)=O [ethyl acetate] + CCCCC
[1], x1 = 1
Details | mass density [kg/m3]
291.15 K | 902.88 ± 0.73
298.15 K | 894.4 ± 0.72

CCOC(C)=O [ethyl acetate] + CCCCCCCC
[1], x1 = 1
Details | mass density [kg/m3]
291.15 K | 902.88 ± 0.73
298.15 K | 894.4 ± 0.72
318.15 K | 869.6 ± 0.69
328.15 K | 857.17 ± 0.68

CCOC(C)=O [ethyl acetate] + CCCCCCCCC
[1], x1 = 1
Details | mass density [kg/m3]
291.15 K | 902.88 ± 0.73
298.15 K | 894.4 ± 0.72
318.15 K | 869.6 ± 0.69
328.15 K | 857.17 ± 0.68

CCOC(C)=O [ethyl acetate] + CCCCCCCCCC
[1], x1 = 1
Details | mass density [kg/m3]
291.15 K | 902.88 ± 0.73
298.15 K | 894.4 ± 0.72
318.15 K | 869.6 ± 0.69
328.15 K | 857.17 ± 0.68

CCCCCCC [heptane] + CCOC(C)=O
[1], x2 = 0
Details | mass density [kg/m3]
291.15 K | 685.28 ± 0.32
298.15 K | 679.48 ± 0.32
318.15 K | 662.06 ± 0.33
328.15 K | 653.6 ± 0.33

CCCCCC [hexane] + CCOC(C)=O
[1], x2 = 0
Details | mass density [kg/m3]
291.15 K | 661.17 ± 0.52
298.15 K | 654.9 ± 0.51
318.15 K | 636.5 ± 0.5
328.15 K | 627 ± 0.5

CCCCCCCC [octane]
[2]
Details | mass density [kg/m3] | vapor or sublimation pressure [kPa]
291.15 K | 704.13 ± 0.55 | –
298.15 K | 698.6 ± 0.54 | –
318.15 K | 682.16 ± 0.53 | –
328.15 K | 674.15 ± 0.53 | –
350.64 K | – | 21.09 ± 0.07
353.05 K | – | 23.14 ± 0.07
355.76 K | – | 25.56 ± 0.08
356.97 K | – | 26.7 ± 0.08
358.82 K | – | 28.55 ± 0.08
361.59 K | – | 31.58 ± 0.09
363.86 K | – | 34.16 ± 0.09
365.82 K | – | 36.53 ± 0.1
367.65 K | – | 38.88 ± 0.1
369.09 K | – | 40.82 ± 0.11
370.77 K | – | 43.19 ± 0.11
372.39 K | – | 45.57 ± 0.12
374.01 K | – | 48.04 ± 0.12
375.61 K | – | 50.59 ± 0.13
377 K | – | 52.9 ± 0.13
378.25 K | – | 55.02 ± 0.14
380.03 K | – | 58.2 ± 0.14
381.34 K | – | 60.63 ± 0.15
382.42 K | – | 62.68 ± 0.15
383.64 K | – | 65.07 ± 0.16
384.76 K | – | 67.34 ± 0.16
386.29 K | – | 70.52 ± 0.17
387.45 K | – | 73.02 ± 0.18
388.55 K | – | 75.43 ± 0.18
389.65 K | – | 77.94 ± 0.19
390.56 K | – | 80.05 ± 0.19
391.6 K | – | 82.51 ± 0.2
392.6 K | – | 84.94 ± 0.2
393.47 K | – | 87.09 ± 0.21
394.37 K | – | 89.39 ± 0.21
395.14 K | – | 91.38 ± 0.21
396.04 K | – | 93.64 ± 0.22
396.95 K | – | 96.14 ± 0.23
397.9 K | – | 98.73 ± 0.23
398.19 K | – | 99.59 ± 0.23
398.59 K | – | 100.68 ± 0.23
398.83 K | – | 101.32 ± 0.24
399.61 K | – | 103.61 ± 0.24
400.53 K | – | 106.23 ± 0.25
401.23 K | – | 108.3 ± 0.25
402.03 K | – | 110.71 ± 0.26
402.81 K | – | 113.09 ± 0.26
403.32 K | – | 114.65 ± 0.26
403.81 K | – | 116.17 ± 0.27
404.1 K | – | 117.1 ± 0.27
404.79 K | – | 119.25 ± 0.27
405.51 K | – | 121.6 ± 0.28
406.27 K | – | 124.1 ± 0.28
407.03 K | – | 126.61 ± 0.29
407.89 K | – | 129.5 ± 0.3
408.75 K | – | 132.46 ± 0.3
409.62 K | – | 135.53 ± 0.31
410.15 K | – | 137.42 ± 0.31
410.83 K | – | 139.87 ± 0.32
422.1 K | – | 185.56 ± 0.42
422.64 K | – | 188.02 ± 0.42
423.26 K | – | 190.85 ± 0.43
423.76 K | – | 193.15 ± 0.43
424.15 K | – | 195.02 ± 0.44
424.76 K | – | 197.87 ± 0.44
425.2 K | – | 199.97 ± 0.45
